In ChEMBL document CHEMBL1125524, “Adenosine A1 antagonists. 2. Structure-activity relationships on diuretic activities and protective effects against acute renal failure” (J Med Chem, 1992):
pKi: −log10 of the molar value.

What was measured:
Rattus norvegicus [1] = assay: Oral diuretic activity was measured after oral administration of 1.6 mg/kg to rats(control volume is 0.93+/-0.03); assay type: functional, Urine
Rattus norvegicus [2] = assay: Ratio of sodium ion/potassium ion concentration in treated rats to that in control rats, at a peroral dose of 0.01 mg/Kg; assay type: functional
Rattus norvegicus [3] = assay: Ratio of urinary excretion value (Na+ concentration) in treated rats to that in control rats, at a peroral dose of 1.6 mg/Kg; assay type: functional, Urine
Rattus norvegicus [4] = assay: Percent inhibition of serum creatinine by the compound given as ratio of Cr value in treated to vehicle treated ones after intraperitoneal administration of 1 mg/kg of compound to rats(vehicle 4.27+/-0.24); assay type: functional; settings: ip
Rattus norvegicus [5] = assay: Urea nitrogen concentration measured after intraperitoneal administration of 0.1 mg/kg of compound to rats(vehicle 165.3+/-4); assay type: functional
Rattus norvegicus [6] = assay: Urea nitrogen concentration measured after intraperitoneal administration of 0.01 mg/kg of compound to rats(vehicle 143.9+/-12.2); assay type: functional
Rattus norvegicus [7] = assay: Effect on urinary excretion potassium and sodium after oral administration of 0.01 mg/kg to rats(potassium and sodium excretion in control rat is 0.191+/-0.020); assay type: functional, Urine
Rattus norvegicus [8] = assay: Percent inhibition of serum creatinine by the compound given as ratio of Cr value in treated to vehicle treated ones after intraperitoneal administration of 0.1 mg/kg of compound to rats(vehicle 5.08+/-0.14); assay type: functional; settings: ip
Rattus norvegicus [9] = assay: Percent inhibition of serum creatinine by the compound given as ratio of Cr value in treated to vehicle treated ones after intraperitoneal administration of 0.01 mg/kg of compound to rats(vehicle 4.09+/-0.39); assay type: functional; settings: ip
Rattus norvegicus [10] = assay: Ratio of urinary excretion value (urinary volume) in treated rats to that in control rats, at a peroral dose of 0.01 mg/Kg; assay type: functional, Urine
Rattus norvegicus [11] = assay: Serum creatinine concentration measured after intraperitoneal administration of 0.01 mg/kg of compound to rats(vehicle 4.09+/-0.39); assay type: functional
Rattus norvegicus [12] = assay: Percent inhibition of Urea nitrogen by the compound given as ratio of UN value in treated to vehicle treated ones after intraperitoneal administration of 0.1 mg/kg of compound to rats(vehicle 165.3+/-4); assay type: functional; settings: ip
Rattus norvegicus [13] = assay: Ratio of sodium ion/potassium ion concentration in treated rats to that in control rats, at a peroral dose of 1.6 mg/Kg; assay type: functional
Rattus norvegicus [14] = assay: Ratio of urinary excretion value (urinary volume) in treated rats to that in control rats, at a peroral dose of 0.1 mg/Kg; assay type: functional, Urine
Rattus norvegicus [15] = assay: Ratio of sodium ion/potassium ion concentration in treated rats to that in control rats, at a peroral dose of 0.1 mg/Kg; assay type: functional
Rattus norvegicus [16] = assay: Ratio of urinary excretion value (urinary volume) in treated rats to that in control rats, at a peroral dose of 1.6 mg/Kg; assay type: functional, Urine
Rattus norvegicus [17] = assay: Effect on urinary excretion potassium and sodium after oral administration of 0.1 mg/kg to rats(potassium and sodium excretion in control rat is 0.179+/-0.038); assay type: functional, Urine
Rattus norvegicus [18] = assay: Serum creatinine concentration measured after intraperitoneal administration of 1 mg/kg of compound to rats(vehicle 4.27+/-0.24); assay type: functional
Adenosine A2 receptor = Adenosine A2 receptor (Rattus norvegicus, UniProt P29276+P30543)
Rattus norvegicus [19] = assay: Ratio of urinary excretion value (Na+ concentration) in treated rats to that in control rats, at a peroral dose of 0.1 mg/Kg; assay type: functional, Urine
Rattus norvegicus [20] = assay: Percent inhibition of Urea nitrogen by the compound given as ratio of UN value in treated to vehicle treated ones after intraperitoneal administration of 0.01 mg/kg of compound to rats(vehicle 143.9+/-12.2); assay type: functional; settings: ip
Rattus norvegicus [21] = assay: Effect on urinary excretion potassium and sodium after oral administration of 1.6 mg/kg to rats(potassium and sodium excretion in control rat is 0.173+/-0.015); assay type: functional, Urine
Rattus norvegicus [22] = assay: Oral diuretic activity was measured after oral administration of 0.01 mg/kg to rats(control volume is 1.15+/-0.17); assay type: functional, Urine
Rattus norvegicus [23] = assay: Oral diuretic activity was measured after oral administration of 0.1 mg/kg to rats(control volume is 0.75+/-0.12); assay type: functional, Urine
Rattus norvegicus [24] = assay: Urea nitrogen concentration measured after intraperitoneal administration of 1 mg/kg of compound to rats(vehicle 171.5+/-7.7); assay type: functional
Rattus norvegicus [25] = assay: Ratio of urinary excretion value (Na+ concentration) in treated rats to that in control rats, at a peroral dose of 0.01 mg/Kg; assay type: functional, Urine
Rattus norvegicus [26] = assay: Percent inhibition of Urea nitrogen by the compound given as ratio of UN value in treated to vehicle treated ones after intraperitoneal administration of 1 mg/kg of compound to rats(vehicle 171.5+/-7.7); assay type: functional; settings: ip
Rattus norvegicus [27] = assay: Serum creatinine concentration measured after intraperitoneal administration of 0.1 mg/kg of compound to rats(vehicle 5.08+/-0.14); assay type: functional
Adenosine receptor A1 = target: T1, Adenosine receptor A1 (Cavia porcellus, UniProt P47745)
T1 sequence (P47745 whole entry): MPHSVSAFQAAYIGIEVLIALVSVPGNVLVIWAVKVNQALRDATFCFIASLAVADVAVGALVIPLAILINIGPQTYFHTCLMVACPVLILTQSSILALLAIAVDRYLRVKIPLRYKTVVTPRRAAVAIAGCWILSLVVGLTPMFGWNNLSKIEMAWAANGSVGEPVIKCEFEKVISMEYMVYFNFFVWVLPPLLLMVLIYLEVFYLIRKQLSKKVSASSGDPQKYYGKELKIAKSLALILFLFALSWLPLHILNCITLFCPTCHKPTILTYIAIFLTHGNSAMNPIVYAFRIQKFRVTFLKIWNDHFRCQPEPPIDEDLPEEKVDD
Description: Binding affinity against adenosine A1 receptor in guinea pig forebrain membranes using N6-[3H]cyclohexyladenosine as radioligand

Rattus norvegicus [28] = assay: Serum creatinine concentration measured after intraperitoneal administration of 1 mg/kg of compound to rats(vehicle 4.82+/-0.17); assay type: functional
Rattus norvegicus [29] = assay: Effect on urinary excretion potassium and sodium after oral administration of 1.6 mg/kg to rats(potassium and sodium excretion in control rat is 0.169+/-0.012); assay type: functional, Urine
Rattus norvegicus [30] = assay: Urea nitrogen concentration measured after intraperitoneal administration of 0.1 mg/kg of compound to rats(vehicle 141.3+/-8.3); assay type: functional
Rattus norvegicus [31] = assay: Percent inhibition of serum creatinine by the compound given as ratio of Cr value in treated to vehicle treated ones after intraperitoneal administration of 1 mg/kg of compound to rats(vehicle 4.82+/-0.17); assay type: functional; settings: ip
Rattus norvegicus [32] = assay: Percent inhibition of serum creatinine by the compound given as ratio of Cr value in treated to vehicle treated ones after intraperitoneal administration of 0.1 mg/kg of compound to rats(vehicle 3.62+/-0.23); assay type: functional; settings: ip
Rattus norvegicus [33] = assay: Percent inhibition of serum creatinine by the compound given as ratio of Cr value in treated to vehicle treated ones after intraperitoneal administration of 0.01 mg/kg of compound to rats(vehicle 4.50+/-0.24); assay type: functional; settings: ip
Rattus norvegicus [34] = assay: Oral diuretic activity was measured after oral administration of 0.4 mg/kg to rats(control volume is 1.72+/-0.31); assay type: functional, Urine
Rattus norvegicus [35] = assay: Percent inhibition of Urea nitrogen by the compound given as ratio of UN value in treated to vehicle treated ones after intraperitoneal administration of 0.1 mg/kg of compound to rats(vehicle 141.3+/-8.3); assay type: functional; settings: ip
Rattus norvegicus [36] = assay: Percent inhibition of Urea nitrogen by the compound given as ratio of UN value in treated to vehicle treated ones after intraperitoneal administration of 1 mg/kg of compound to rats(vehicle 151.5+/-7.4); assay type: functional; settings: ip
Rattus norvegicus [37] = assay: Effect on urinary excretion potassium and sodium after oral administration of 0.4 mg/kg to rats(potassium and sodium excretion in control rat is 0.267+/-0.044); assay type: functional, Urine
Rattus norvegicus [38] = assay: Ratio of urinary excretion value (Na+ concentration) in treated rats to that in control rats, at a peroral dose of 0.4 mg/Kg; assay type: functional, Urine
Rattus norvegicus [39] = assay: Serum creatinine concentration measured after intraperitoneal administration of 0.01 mg/kg of compound to rats(vehicle 4.50+/-0.24); assay type: functional
Rattus norvegicus [40] = assay: Oral diuretic activity was measured after oral administration of 1.6 mg/kg to rats(control volume is 0.97+/-0.05); assay type: functional, Urine
Rattus norvegicus [41] = assay: Ratio of sodium ion/potassium ion concentration in treated rats to that in control rats, at a peroral dose of 0.4 mg/Kg; assay type: functional
Rattus norvegicus [42] = assay: Ratio of urinary excretion value (urinary volume) in treated rats to that in control rats, at a peroral dose of 0.4 mg/Kg; assay type: functional, Urine
Rattus norvegicus [43] = assay: Urea nitrogen concentration measured after intraperitoneal administration of 0.01 mg/kg of compound to rats(vehicle 130.6+/-4.1); assay type: functional
Rattus norvegicus [44] = assay: Percent inhibition of Urea nitrogen by the compound given as ratio of UN value in treated to vehicle treated ones after intraperitoneal administration of 0.01 mg/kg of compound to rats(vehicle 130.6+/-4.1); assay type: functional; settings: ip
Rattus norvegicus [45] = assay: Serum creatinine concentration measured after intraperitoneal administration of 0.1 mg/kg of compound to rats(vehicle 3.62+/-0.23); assay type: functional
Rattus norvegicus [46] = assay: Urea nitrogen concentration measured after intraperitoneal administration of 1 mg/kg of compound to rats(vehicle 151.5+/-7.4); assay type: functional

## CC(C)Cn1c(=O)n(C)c(=O)c2[nH]c(C3CCCC3)nc21
Rattus norvegicus [1]
  Urine volume: 1.97 ml 6hr-1 100g-1
Rattus norvegicus [2]
  Na+/K+: 1.22
Rattus norvegicus [3]
  T/C: 2.19
Rattus norvegicus [4]
  inhibition in vivo at 1 mg/kg: 40%
Rattus norvegicus [5]
  UN: 107.3 mg/dL
Rattus norvegicus [6]
  UN: 106.4 mg/dL
Rattus norvegicus [7]
  Na: 0.257 m equiv 6hr-1 100g-1
Rattus norvegicus [8]
  inhibition in vivo at 0.1 mg/kg: 45%
Rattus norvegicus [9]
  inhibition in vivo at 0.01 mg/kg: 25%
Rattus norvegicus [10]
  T/C: 1.14
Rattus norvegicus [11]
  Cr: 3.08 mg/dL
Rattus norvegicus [12]
  inhibition in vivo at 0.1 mg/kg: 35%
Rattus norvegicus [13]
  Na+/K+: 1.57
Rattus norvegicus [14]
  T/C: 2.12
Rattus norvegicus [15]
  Na+/K+: 1.55
Rattus norvegicus [16]
  T/C: 2.12
Rattus norvegicus [17]
  Na: 0.308 m equiv 6hr-1 100g-1
Rattus norvegicus [18]
  Cr: 2.54 mg/dL
Adenosine A2 receptor
  Ki: 880 nM
Rattus norvegicus [19]
  T/C: 1.72
Rattus norvegicus [20]
  inhibition in vivo at 0.01 mg/kg: 26%
Rattus norvegicus [21]
  Na: 0.379 m equiv 6hr-1 100g-1
Rattus norvegicus [22]
  Urine volume: 1.31 ml 6hr-1 100g-1
Rattus norvegicus [23]
  Urine volume: 1.59 ml 6hr-1 100g-1
Rattus norvegicus [24]
  UN: 109.5 mg/dL
Rattus norvegicus [25]
  T/C: 1.35
Rattus norvegicus [26]
  inhibition in vivo at 1 mg/kg: 36%
Rattus norvegicus [27]
  Cr: 2.79 mg/dL
Adenosine receptor A1
  pKi: 7.48

## CCn1c(=O)c2nc(C34CC5CC(CC3C5)C4)[nH]c2n(CC)c1=O
Rattus norvegicus [28]
  Cr: 2.09 mg/dL
Rattus norvegicus [29]
  Na: 0.492 m equiv 6hr-1 100g-1
Rattus norvegicus [30]
  UN: 44.5 mg/dL
Rattus norvegicus [3]
  T/C: 2.92
Rattus norvegicus [31]
  inhibition in vivo at 1 mg/kg: 57%
Rattus norvegicus [32]
  inhibition in vivo at 0.1 mg/kg: 63%
Rattus norvegicus [33]
  inhibition in vivo at 0.01 mg/kg: 37%
Rattus norvegicus [34]
  Urine volume: 2.29 ml 6hr-1 100g-1
Rattus norvegicus [35]
  inhibition in vivo at 0.1 mg/kg: 68%
Rattus norvegicus [36]
  inhibition in vivo at 1 mg/kg: 56%
Rattus norvegicus [37]
  Na: 0.356 m equiv 6hr-1 100g-1
Rattus norvegicus [38]
  T/C: 1.33
Rattus norvegicus [13]
  Na+/K+: 1.97
Rattus norvegicus [39]
  Cr: 2.82 mg/dL
Rattus norvegicus [40]
  Urine volume: 2.9 ml 6hr-1 100g-1
Rattus norvegicus [41]
  Na+/K+: 1.29
Rattus norvegicus [16]
  T/C: 2.99
Rattus norvegicus [42]
  T/C: 1.33
Rattus norvegicus [43]
  UN: 81.7 mg/dL
Adenosine A2 receptor
  pKi: 5.80
Rattus norvegicus [44]
  inhibition in vivo at 0.01 mg/kg: 37%
Rattus norvegicus [45]
  Cr: 1.44 mg/dL
Rattus norvegicus [46]
  UN: 65.9 mg/dL
